Laboratory results from patent US11078214B2, “Monocyclic thieno, pyrido, and pyrrolo pyrimidine compounds and methods of use and manufacture of same” (Duquesne University of the Holy Spirit, priority 2015, dated 2021).
Where two headings read alike, the source gives them in different places. Values belong to the compound of their own block, whether it stands above or below them.

Columns and labels:
D4 CHO cells (FRβ) = test: Growth inhibition of CHO subline D4 expressing FRβ; type: cell-based, Chinese hamster
[1] = test system: KB human tumor cells (RFC/FRα/PCFT); test: Growth inhibition of KB human tumor cells; type: cell-based
Source text: The experiments with the CHO sublines were extended to KB human nasopharyngeal carcinoma cells which express highly elevated FRα, along with RFC and PCFT.

[2] = test system: PC43-10 CHO cells (human RFC); test: Growth inhibition of CHO subline PC43-10 expressing human RFC; type: cell-based, Chinese hamster
RT16 CHO cells (FRα) = test: Growth inhibition of CHO subline RT16 expressing human FRα; type: cell-based, Chinese hamster
SK-OV-3 MDR-1-6/6 = test: cells; type: cell-based, human
cellular microtubules = test: Cellular microtubule depolymerization (Section V); type: cell-based; conditions: Section V Table 2; bare values under μM head, EC50/IC50 ratio implies nM
SK-OV-3 = test: Antiproliferative SRB assay, parental SK-OV-3; type: cell-based, human
HeLa = test: Antiproliferative SRB assay, parental HeLa; type: cell-based, human
Source text: (§1) A second clinically relevant mechanism of drug resistance to these microtubule agents is the expression of βIII isotype of tubulin. […] The WT βIII cell line was generated from HeLa cells transfected with the gene for/III-tubulin.

A-10 cells = test: Cellular microtubule depolymerization (loss of cellular microtubules) in A-10 cells; type: cell-based
purified tubulin = test: Inhibition of the assembly of purified tubulin; type: biochemical; conditions: Section V Table 3; read-out: Inhibition of tubulin assembly IC50 (μM) ± SD
MDA-MB-435 cancer cells = test: Antiproliferative sulforhodamine B (SRB) assay in MDA-MB-435 cells; type: cell-based, human
[3] = test system: tubulin (colchicine site); test: Inhibition of [3H]colchicine binding to tubulin; conditions: 1 μM inhibitor
recombinant pjDHFR [4] = target: T1, recombinant pjDHFR (Pneumocystis jirovecii (Human pneumocystis pneumonia agent), UniProt Q9UUP5); conditions: Section I Table 1; cited from earlier work
recombinant pjDHFR [5] = target: T1, recombinant pjDHFR; conditions: Section I Table 3
hDHFR = hDHFR (Homo sapiens (Human), UniProt P00374); test: Inhibition of recombinant hDHFR; type: biochemical; conditions: Section I Table 3; 37° C., 18 μM dihydrofolic acid; title says μM, head nM; read-out: Human DHFR
hDHFR, sequence (P00374 whole entry): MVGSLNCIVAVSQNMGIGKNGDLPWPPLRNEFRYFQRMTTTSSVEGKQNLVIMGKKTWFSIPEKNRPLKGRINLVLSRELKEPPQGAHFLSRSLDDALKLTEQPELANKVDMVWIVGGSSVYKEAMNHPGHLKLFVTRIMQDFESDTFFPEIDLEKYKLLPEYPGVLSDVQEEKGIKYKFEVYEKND

[6] = test system: R2 CHO cells (transporter-null); test: Growth inhibition of transporter-null R2 CHO cells; type: cell-based, Chinese hamster; conditions: Cricetulus griseus
[7] = test system: R2/PCFT4 CHO cells (PCFT); test: Growth inhibition of CHO subline R2/PCFT4 expressing human PCFT; type: cell-based, Chinese hamster; conditions: Cricetulus griseus
WT βIII cell line = test: Antiproliferative SRB assay, WT βIII (HeLa transfected with βIII-tubulin); type: cell-based; conditions: Homo sapiens
Source text: as §1

[8] = Section III Table 1, read-out: R2 (nM) Null IC50
[9] = Section VI Table 1, read-out: R2 IC50
[10] = R2/PCFT4, Section VI Table 1, read-out: PCFT (nM) R2/PCFT4 IC50
[11] = Section III Table 1, R2/PCFT4, read-out: PCFT4 (nM) PCFT IC50
[12] = Cricetulus griseus, CHO, Section III Table 1, read-out: D4 (nM) FRβ IC50
[13] = Cricetulus griseus, CHO, Section VI Table 1, read-out: FRβ (nM) D4 IC50
[14] = Rattus norvegicus, A10, Section II Table 1, 50% loss of cellular microtubules, read-out: Microtubule depolymerization (A-10 cells) EC50 ± SD
[15] = Homo sapiens, Section III Table 1, read-out: KB (nM) RFC/FRα/PCFT IC50
[16] = Homo sapiens, Section VI Table 1, read-out: FRα/PCFT/RFC (nM) KB IC50
[17] = Homo sapiens, PC43-10, Section III Table 1, read-out: PC43-10 (nM) RFC IC50
[18] = Homo sapiens, PC43-10, Section VI Table 1, read-out: RFC (nM) PC43-10 IC50
[19] = Cricetulus griseus, RT16, Section III Table 1, read-out: RT16 (nM) FRα IC50
[20] = Cricetulus griseus, RT16, Section VI Table 1, read-out: FRα (nM) R16 IC50

IC50 ([1]; Section IV Table 1, +FA, read-out: KB (+FA) IC50): > 1000 nM
IC50 ([1]; Section IV Table 1, read-out: RFC/FRα/PCFT KB IC50): 1.8 nM
SMILES: Nc1nc2[nH]c(CCCc3ccc(C(=O)N[C@@H](CCC(=O)O)C(=O)O)cc3)cc2c(=O)[nH]1 [AGF17, reference compound]
IC50 (D4 CHO cells (FRβ); Section IV Table 1, +FA, read-out: FRβ D4 (+FA) IC50): > 1000 nM
IC50 (D4 CHO cells (FRβ); Section IV Table 1, read-out: FRβ D4 IC50): 2.7 nM
IC50 ([2]; Section IV Table 1, spread in parentheses, read-out: RFC PC43-10 IC50): 648 nM
IC50 (RT16 CHO cells (FRα); Section IV Table 1, +FA, read-out: FRα RT16 (+FA) IC50): > 1000 nM
IC50 (RT16 CHO cells (FRα); Section IV Table 1, read-out: FRα RT16 IC50): 3.2 nM

SMILES: COc1ccc(/C=C\c2cc(OC)c(OC)c(OC)c2)cc1O [CA4, Combretastatin A-4, reference compound]
IC50 (SK-OV-3 MDR-1-6/6; Pgp overexpressing cell line, SRB, n = 3, read-out: SK-OV-3 MDR-1-6/6 IC50 ± SD): 6.6 ± 1.3 nM
EC50 (cellular microtubules): 9.8 µM
IC50 (HeLa; parental HeLa, read-out: HeLa IC50 ± SD): 4.7 ± 0.2 nM
EC50 (A-10 cells; Section II Table 1, nM, read-out: Microtubule depolymerization (A-10 cells) EC50): 13 nM
EC50 (A-10 cells; Section VIII Table 1, read-out: EC50 (nM) in A-10 cells (Loss of cellular microtubules)): 13 nM
IC50 (MDA-MB-435 cancer cells; Section II Table 1, SRB assay, read-out: MDA-MB-435 IC50 ± SD): 3.4 ± 0.6 nM
IC50 (MDA-MB-435 cancer cells; Section V Table 2, read-out: IC50 MDA-MB-435): 4.4 ± 0.46 nM
IC50 (MDA-MB-435 cancer cells; Section VIII Table 1, read-out: IC50 ± SD (MDA-MB-435) nM cancer cells): 3.4 ± 0.6 nM
Inhibition of colchicine binding % Inhibition ± SD [3]: 85 ± 3%

SMILES: Cc1nc(N)nc2ccc(Nc3cc(F)c(F)c(F)c3)nc12 [Compound A]
Hu/Pj selectivity ratio (hDHFR/pjDHFR) (recombinant pjDHFR [4]): 3.5
Hu/Pj selectivity ratio (recombinant pjDHFR [5]): 3.5
IC50 (recombinant pjDHFR [5]; read-out: DHFR Pj, 37° C., 18 μM dihydrofolic acid, title says μM, head nM): 0.87 µM
IC50 (hDHFR): 3.1 µM

SMILES: COc1cc(NCc2ccc3nc(N)nc(N)c3c2C)cc(OC)c1OC [TMQ, trimetrexate]
Hu/Pj selectivity ratio (hDHFR/pjDHFR) (recombinant pjDHFR [4]): 0.1

SMILES: COc1ccc(N(C)c2nc(C)nc3cc[nH]c23)cc1 [compound 1]
IC50 [6, 8]: > 1000 nM
IC50 [6, 9]: 289 nM
IC50 [7, 10]: 3.64 nM
IC50 [7, 11]: 213 nM
IC50 (SK-OV-3; Homo sapiens, SK-OV-3, parental cell line, SRB, n = 3, read-out: SK-OV-3 IC50 ± SD): 278 ± 19 nM
IC50 (D4 CHO cells (FRβ); [12]): 10 nM
IC50 (D4 CHO cells (FRβ); [13]): 0.2 nM
IC50 (HeLa; Homo sapiens, parental HeLa, read-out: HeLa IC50 ± SD): 270 ± 26 nM
EC50 (A-10 cells; [14]): 5800 nM
EC50 (A-10 cells; Rattus norvegicus, A10, Section VIII Table 1, read-out: EC50 (nM) in A-10 cells (Loss of cellular microtubules)): 5800 nM
IC50 [1, 15]: 1.9 nM
IC50 [1, 16]: 0.2 nM
IC50 (WT βIII cell line; HeLa transfected with βIII-tubulin, read-out: WT βIII IC50 ± SD): 186 ± 21 nM
IC50 [2, 17]: > 1000 nM
IC50 [2, 18]: 101 nM
IC50 (RT16 CHO cells (FRα); [19]): 6.3 nM
IC50 (RT16 CHO cells (FRα); [20]): 0.19 nM

SMILES: COc1ccc(N(C)c2nc(C)nc3ccsc23)cc1 [compound 2]
IC50 (SK-OV-3 MDR-1-6/6; Homo sapiens, SK-OV-3, read-out: SK-OV-3 MDR-1-6/6 IC50 ± SD (nM)): 438 ± 58 nM
IC50 ([6]; read-out: R2 (nM) Null IC50): > 1000 nM
IC50 ([6]; read-out: R2 IC50): > 1000 nM
IC50 ([7]; R2/PCFT4, read-out: PCFT4 (nM) PCFT IC50): 57.6 nM
IC50 ([7]; R2/PCFT4, read-out: PCFT (nM) R2/PCFT4 IC50): 40 nM
IC50 (SK-OV-3; Homo sapiens, SK-OV-3, read-out: SK-OV-3 IC50 ± SD (nM)): 253 ± 23 nM
IC50 (D4 CHO cells (FRβ); Cricetulus griseus, CHO, read-out: D4 (nM) FRβ IC50): 0.52 nM
IC50 (D4 CHO cells (FRβ); Cricetulus griseus, CHO, read-out: FRβ (nM) D4 IC50): 2.36 nM
IC50 (HeLa; Homo sapiens, HeLa, read-out: HeLa IC50 ± SD (nM)): 186 ± 19 nM
EC50 (A-10 cells; Rattus norvegicus, A10, read-out: Microtubule depolymerization (A-10 cells) EC50 ± SD (μM)): 8100 nM
IC50 ([1]; Homo sapiens, read-out: FRα/PCFT/RFC (nM) KB IC50): 1.13 nM
IC50 ([1]; Homo sapiens, read-out: KB (nM) RFC/FRα/PCFT IC50): 0.34 nM
IC50 (WT βIII cell line; HeLa, read-out: WT βIII IC50 ± SD (nM)): 152 ± 14 nM
IC50 ([2]; Homo sapiens, PC43-10, read-out: PC43-10 (nM) RFC IC50): > 1000 nM
IC50 ([2]; Homo sapiens, PC43-10, read-out: RFC (nM) PC43-10 IC50): > 1000 nM
IC50 (RT16 CHO cells (FRα); Cricetulus griseus, RT16, read-out: FRα (nM) R16 IC50): 1.72 nM
IC50 (RT16 CHO cells (FRα); Cricetulus griseus, RT16, read-out: RT16 (nM) FRα IC50): 1.27 nM
IC50 (MDA-MB-435 cancer cells; Homo sapiens, MDA-MB-435, read-out: MDA-MB-435 IC50 ± SD (nM)): 198 ± 23 nM

EC50 (A-10 cells; [14]): > 10000 nM
IC50 [1, 15]: 0.48 nM
IC50 [1, 16]: 674 nM
SMILES: CSc1ccc(Nc2nc(C)nc3ccsc23)cc1 [compound 3]
IC50 [6, 8]: > 1000 nM
IC50 [6, 9]: > 1000 nM
IC50 [7, 10]: > 1000 nM
IC50 [7, 11]: 41.5 nM
IC50 (D4 CHO cells (FRβ); [12]): 0.43 nM
IC50 (D4 CHO cells (FRβ); [13]): > 1000 nM
IC50 [2, 17]: > 1000 nM
IC50 [2, 18]: > 1000 nM
IC50 (RT16 CHO cells (FRα); [19]): 2.54 nM
IC50 (RT16 CHO cells (FRα); [20]): > 1000 nM
